Read-outs that look alike come from different tables or passages of the source.
Legend:
U2OS = assay: Cell viability, CellTiter-Glo assay, U2OS; assay type: cell-based
Method in brief: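 Cell viability was measured by CellTiter-Glo ATP luminescence in DMEM, with DMSO control. The compound was tested in an 8-point 3-fold dilution series from 100 or 10 μM down to 45 or 4.5 nM. Each run had at least two biological replicates, each in technical triplicate.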

22Rv1 = assay: Cell viability, CellTiter-Glo assay, 22Rv1; assay type: cell-based
Method: (§1) The viability of screened cancer cells was recorded using a luminescence-based CellTiter-Glo® assay for the ATP quantification. The screening concentration of the molecule ranged from 100/10 μM to 45/4.5 nM with an 8-point-3-fold dilution series in DMEM media (>0.1% DMSO as control). Each experiment was conducted in more than two biological replicates with three technical replicates. The error bar is a representation of standard deviation among the technical replicates.
as §1, with “IITK3002” for “the molecule”, “10” for “100/10”, “4.5” for “45/4.5”
a. […] In parallel, we have also synthesized the bromoacetamide (IITK3002) version of the lead molecules which is slightly more reactive with thiol nucleophiles when compared to chlorooacetamide warheads as depicted in FIG. 13. […] In addition, we also evaluated the molecules' antiproliferative potency against a panel of twelve different cancer phenotypes. The set of cancer cell lines included liver, breast, colon, myeloma, bone, blood, skin, brain and prostate lineages (FIG. 2, 3, Table 1).

Huh-7 cells = assay: Cell viability, luminescence-based CellTiter-Glo assay, Huh-7 cells
Method in brief: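 ATP-based CellTiter-Glo luminescence in Huh-7 cells in DMEM, with DMSO (>0.1%) as control. Single-point screens used 10 μM compound with or without Fer-1 (10 μM); dose responses used 8-point 3-fold dilutions from 100/10 μM to 45/4.5 nM. More than two biological replicates with three technical replicates each.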

[1] = Homo sapiens, 22Rv1, 22Rv1, cell viability
[2] = Homo sapiens, Huh-7, Huh-7 cells, antiproliferative activity, read-out: EC50 in Huh-7 cells
[3] = Homo sapiens, Huh-7, Huh-7 cells, cell viability, read-out: EC50 Huh-7
[4] = Huh-7 cells, cell viability, read-out: EC50 Huh-7

Row | EC50 (U2OS) [nM] | EC50 (U2OS; Homo sapiens) [nM] | EC50 (22Rv1; [1]) [nM] | EC50 (Huh-7 cells; [2]) [nM] | EC50 (Huh-7 cells; [3]) [nM] | EC50 (Huh-7 cells; [4]) [nM] | EC50 (22Rv1; 22Rv1, cell viability) [nM] | EC50 (Huh-7 cells; Huh-7 cells, antiproliferative activity, read-out: EC50 in Huh-7 cells) [nM] | Compound | screening of electrophilic small molecules, viability of Huh-7 cells (Huh-7 cells; 10 μM with or without Fer-1 (10 μM))
1 | 130 | 133 | 40 | 30 | 32 | 32 | – | – | CN(C(=O)CBr)c1ccccc1C(=O)c1ccccc1 [IITK3002, N-(2-benzoylphenyl)-2-bromo-N-methylacetamide] | –
2 | 350 | 355 | 148 | – | 233 | 233 | 150 | – | CN(C(=O)CCl)c1ccccc1C(=O)c1ccccc1 [IITK3001, N-(2-benzoylphenyl)-2-chloro-N-methylacetamide] | potent inhibitors of Huh-7 cells
3 | – | 1290 | 420 | 44 | 43.6 | – | – | 60 | C#CCN(C(=O)CCl)c1ccccc1C(=O)c1ccccc1 [IITK3003, N-(2-benzoylphenyl)-2-chloro-N-(prop-2-yn-1-yl)acetamide] | –
